Values after ≈ are worked out from the molar mass of the structure shown.

What is called MIC is the smallest concentration in the dilution series that meets the test's criterion for growth inhibition. Low values mean a more susceptible organism, high ones a less susceptible organism.

One experiment deals with Entamoeba histolytica. In words: […] activity against Entamoeba histolytica. It counts as functional.
In a further experiment the test system is Giardia intestinalis. The experiment is described as follows: Antigiardial activity against Giardia intestinalis. To be noted: Giardia duodenalis. Format: functional.

For `C=C1C(=O)O[C@@H]2C[C@@H](C)/C=C\C(=O)[C@@](C)(O)[C@H](OC(C)=O)[C@@H](OC(=O)CC(C)C)[C@@H]12` [NEUROLENIN B], the results for the MIC against Entamoeba histolytica and in the experiment on Giardia intestinalis were 7.6 µM (≈ 3.21 µg/mL) and 3.8 µM (≈ 1.61 µg/mL), respectively.
`Cc1ncc([N+](=O)[O-])n1CCO` [METRONIDAZOLE]: inhibition of growth against Giardia intestinalis (MIC) required 1.17 µM (≈ 0.2 µg/mL).
Turning to `CC[C@H]1CN2CCc3cc(OC)c(OC)cc3[C@@H]2C[C@@H]1C[C@H]1NCCc2cc(OC)c(OC)cc21` [EMETINE], the MIC in the experiment with Entamoeba histolytica is 2.9 µM (≈ 1.39 µg/mL).

(Values after ChEMBL document CHEMBL1144081, “Sesquiterpene lactones from neurolaena oaxacana” (1999).)
